Measurements published in patent publication US20120122860A1, “SOLID FORMS OF SULFONAMIDES AND AMINO ACIDS” (Plexxikon, Inc., priority 2009, published 2012).

Key:
B-Raf = B-Raf (Homo sapiens, UniProt P15056); test: Kinase activity assay, B-Raf; assay type: biochemical; details: read-out: activity toward kinase B-Raf, IC50
B-Raf V600E = B-Raf V600E (Homo sapiens, UniProt P15056, V600E); test: Kinase activity assay, B-Raf V600E; assay type: biochemical; details: read-out: activity toward kinase B-Raf V600E, IC50
B-Raf V600E, sequence (P15056 whole entry V600E): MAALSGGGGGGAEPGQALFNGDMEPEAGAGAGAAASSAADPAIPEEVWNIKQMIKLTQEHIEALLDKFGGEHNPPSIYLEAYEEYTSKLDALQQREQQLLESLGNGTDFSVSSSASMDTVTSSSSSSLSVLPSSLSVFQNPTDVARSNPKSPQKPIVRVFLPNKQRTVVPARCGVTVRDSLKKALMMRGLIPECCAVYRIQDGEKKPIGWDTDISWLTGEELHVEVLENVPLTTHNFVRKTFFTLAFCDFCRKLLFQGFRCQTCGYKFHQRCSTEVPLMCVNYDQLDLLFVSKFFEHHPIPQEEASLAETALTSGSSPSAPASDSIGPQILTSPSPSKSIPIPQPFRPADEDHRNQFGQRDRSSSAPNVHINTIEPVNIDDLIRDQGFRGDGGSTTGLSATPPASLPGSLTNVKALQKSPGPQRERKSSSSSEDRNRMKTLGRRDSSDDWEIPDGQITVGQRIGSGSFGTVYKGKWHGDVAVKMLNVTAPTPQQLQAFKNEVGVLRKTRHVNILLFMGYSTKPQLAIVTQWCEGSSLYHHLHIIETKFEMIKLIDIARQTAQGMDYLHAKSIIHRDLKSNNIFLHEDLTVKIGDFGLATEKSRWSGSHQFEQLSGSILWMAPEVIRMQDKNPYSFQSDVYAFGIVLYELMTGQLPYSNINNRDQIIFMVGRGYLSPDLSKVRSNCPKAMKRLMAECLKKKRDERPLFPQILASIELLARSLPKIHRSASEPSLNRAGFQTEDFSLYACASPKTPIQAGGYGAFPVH

Kdr = Kdr (Homo sapiens, UniProt P35968); test: Kinase activity assay, Kdr
Kdr, sequence (P35968 20-1356): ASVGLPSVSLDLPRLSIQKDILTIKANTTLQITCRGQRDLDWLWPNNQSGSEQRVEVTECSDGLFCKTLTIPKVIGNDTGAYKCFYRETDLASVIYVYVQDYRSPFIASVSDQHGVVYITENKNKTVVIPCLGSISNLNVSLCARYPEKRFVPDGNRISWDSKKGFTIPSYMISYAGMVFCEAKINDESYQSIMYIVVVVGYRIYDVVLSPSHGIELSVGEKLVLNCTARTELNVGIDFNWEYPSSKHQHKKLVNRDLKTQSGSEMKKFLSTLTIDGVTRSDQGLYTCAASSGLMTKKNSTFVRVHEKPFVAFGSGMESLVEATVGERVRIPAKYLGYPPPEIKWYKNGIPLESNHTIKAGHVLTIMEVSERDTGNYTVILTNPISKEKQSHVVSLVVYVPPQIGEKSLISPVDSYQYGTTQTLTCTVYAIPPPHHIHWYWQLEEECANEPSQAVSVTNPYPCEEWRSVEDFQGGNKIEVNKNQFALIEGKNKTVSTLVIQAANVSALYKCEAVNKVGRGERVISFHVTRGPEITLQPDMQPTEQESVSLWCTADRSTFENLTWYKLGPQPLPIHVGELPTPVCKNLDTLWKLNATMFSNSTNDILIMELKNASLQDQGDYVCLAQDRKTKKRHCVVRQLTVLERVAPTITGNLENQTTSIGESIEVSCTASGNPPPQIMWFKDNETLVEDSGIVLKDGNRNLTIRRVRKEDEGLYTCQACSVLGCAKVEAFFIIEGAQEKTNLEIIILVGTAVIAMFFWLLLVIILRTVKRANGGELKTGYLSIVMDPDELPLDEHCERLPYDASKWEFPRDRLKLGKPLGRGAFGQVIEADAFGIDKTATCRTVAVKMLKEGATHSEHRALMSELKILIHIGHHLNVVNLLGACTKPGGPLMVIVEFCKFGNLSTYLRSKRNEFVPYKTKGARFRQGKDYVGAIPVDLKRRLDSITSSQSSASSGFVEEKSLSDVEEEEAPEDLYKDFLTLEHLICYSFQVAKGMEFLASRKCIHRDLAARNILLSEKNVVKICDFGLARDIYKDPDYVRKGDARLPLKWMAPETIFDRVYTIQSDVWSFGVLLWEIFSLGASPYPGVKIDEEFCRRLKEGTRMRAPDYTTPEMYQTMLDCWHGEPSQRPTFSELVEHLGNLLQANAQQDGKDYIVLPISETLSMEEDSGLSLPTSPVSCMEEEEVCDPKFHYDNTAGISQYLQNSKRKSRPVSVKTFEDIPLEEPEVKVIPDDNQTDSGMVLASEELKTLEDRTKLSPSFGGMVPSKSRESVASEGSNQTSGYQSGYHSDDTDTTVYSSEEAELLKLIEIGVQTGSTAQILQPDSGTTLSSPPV

Kit = Kit (Homo sapiens, UniProt P10721); test: Kinase activity assay, Kit
Kit, sequence (P10721 26-976): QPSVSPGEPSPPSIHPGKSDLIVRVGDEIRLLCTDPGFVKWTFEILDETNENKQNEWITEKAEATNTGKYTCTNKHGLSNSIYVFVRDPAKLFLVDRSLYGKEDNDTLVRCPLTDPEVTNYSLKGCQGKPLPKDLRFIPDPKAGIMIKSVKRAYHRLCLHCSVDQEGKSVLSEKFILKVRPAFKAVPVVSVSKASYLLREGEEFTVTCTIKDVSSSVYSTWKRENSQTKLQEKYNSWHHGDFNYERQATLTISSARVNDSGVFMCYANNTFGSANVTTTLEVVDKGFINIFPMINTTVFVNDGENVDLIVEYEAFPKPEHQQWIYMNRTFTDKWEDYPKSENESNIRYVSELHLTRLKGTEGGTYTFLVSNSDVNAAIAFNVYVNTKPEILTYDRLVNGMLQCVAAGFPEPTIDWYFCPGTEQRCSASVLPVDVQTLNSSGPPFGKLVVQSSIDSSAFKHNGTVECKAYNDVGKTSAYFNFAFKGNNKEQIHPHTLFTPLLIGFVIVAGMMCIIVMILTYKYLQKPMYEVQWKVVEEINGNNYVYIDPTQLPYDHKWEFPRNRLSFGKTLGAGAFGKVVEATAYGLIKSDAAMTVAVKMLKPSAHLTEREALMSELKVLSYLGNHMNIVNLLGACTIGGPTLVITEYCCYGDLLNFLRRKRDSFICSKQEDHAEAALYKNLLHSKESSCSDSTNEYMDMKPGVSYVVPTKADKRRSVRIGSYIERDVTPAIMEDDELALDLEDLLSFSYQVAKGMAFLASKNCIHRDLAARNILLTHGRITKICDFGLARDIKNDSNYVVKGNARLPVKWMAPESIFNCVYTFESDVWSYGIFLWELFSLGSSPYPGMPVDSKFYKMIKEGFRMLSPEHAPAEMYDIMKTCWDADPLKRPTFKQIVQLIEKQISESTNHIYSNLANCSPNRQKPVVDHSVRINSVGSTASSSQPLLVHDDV

Src = Src (Homo sapiens, UniProt P12931); test: Kinase activity assay, Src
Src, sequence (P12931 whole entry): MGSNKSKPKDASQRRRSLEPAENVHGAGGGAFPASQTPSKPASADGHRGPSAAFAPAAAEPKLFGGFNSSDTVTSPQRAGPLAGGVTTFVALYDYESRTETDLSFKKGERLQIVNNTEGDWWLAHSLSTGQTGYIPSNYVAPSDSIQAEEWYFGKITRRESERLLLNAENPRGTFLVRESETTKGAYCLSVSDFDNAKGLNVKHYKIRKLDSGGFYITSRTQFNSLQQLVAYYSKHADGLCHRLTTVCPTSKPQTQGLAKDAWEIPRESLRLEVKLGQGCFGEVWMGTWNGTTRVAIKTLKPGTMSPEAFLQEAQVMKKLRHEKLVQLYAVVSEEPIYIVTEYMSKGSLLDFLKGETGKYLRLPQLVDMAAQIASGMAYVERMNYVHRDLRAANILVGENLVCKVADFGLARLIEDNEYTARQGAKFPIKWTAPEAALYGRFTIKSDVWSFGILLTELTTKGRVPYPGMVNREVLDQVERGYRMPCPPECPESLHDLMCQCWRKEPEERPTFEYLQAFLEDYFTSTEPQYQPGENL

C-Raf = C-Raf (Homo sapiens, UniProt P04049); test: Kinase activity assay, C-Raf
Fms = Fms (Homo sapiens, UniProt P07333); test: Kinase activity assay, Fms
Fms, sequence (P07333 20-972): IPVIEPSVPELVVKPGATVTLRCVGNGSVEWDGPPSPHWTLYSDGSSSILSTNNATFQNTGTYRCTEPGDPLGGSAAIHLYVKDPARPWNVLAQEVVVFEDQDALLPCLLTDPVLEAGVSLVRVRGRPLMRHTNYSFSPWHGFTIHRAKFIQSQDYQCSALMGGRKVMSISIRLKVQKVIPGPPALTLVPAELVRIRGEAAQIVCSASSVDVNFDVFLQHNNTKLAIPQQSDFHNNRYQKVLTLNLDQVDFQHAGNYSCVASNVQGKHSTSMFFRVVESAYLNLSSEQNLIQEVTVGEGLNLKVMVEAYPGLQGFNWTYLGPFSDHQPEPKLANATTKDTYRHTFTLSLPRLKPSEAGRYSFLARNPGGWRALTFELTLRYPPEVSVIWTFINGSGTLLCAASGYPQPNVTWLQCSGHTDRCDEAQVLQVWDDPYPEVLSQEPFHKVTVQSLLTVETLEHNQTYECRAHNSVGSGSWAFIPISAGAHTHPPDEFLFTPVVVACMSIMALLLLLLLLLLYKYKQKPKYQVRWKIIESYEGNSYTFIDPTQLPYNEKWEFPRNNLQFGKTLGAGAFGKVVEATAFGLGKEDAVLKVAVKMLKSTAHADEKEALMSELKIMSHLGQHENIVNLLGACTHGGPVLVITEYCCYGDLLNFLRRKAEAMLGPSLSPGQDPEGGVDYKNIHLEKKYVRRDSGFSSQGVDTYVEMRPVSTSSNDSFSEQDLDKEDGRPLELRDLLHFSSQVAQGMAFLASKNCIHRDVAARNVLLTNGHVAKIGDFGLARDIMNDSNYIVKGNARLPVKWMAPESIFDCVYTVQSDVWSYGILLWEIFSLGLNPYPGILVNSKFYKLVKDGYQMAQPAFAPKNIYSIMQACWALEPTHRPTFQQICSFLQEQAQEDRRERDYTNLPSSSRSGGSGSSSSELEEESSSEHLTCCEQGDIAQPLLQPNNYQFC

Measured: IC50

B-Raf, sequence (P15056 whole entry): as the sequence (P15056 whole entry V600E) above, with E600V counted along it

COc1ccnc2[nH]cc(C(=O)c3c(F)ccc(NS(=O)(=O)c4ccc(F)cc4F)c3F)c12 [P-2032, N-[2,4-Difluoro-3-(4-methoxy-1H-pyrrolo[2,3-b]pyridine-3-carbonyl)-phenyl]-2,4-difluoro-benzenesulfonamide]
not listed: Fms
≤ 10 µM: all other assays above

N#Cc1cnc2[nH]cc(C(=O)c3cccc(NS(=O)(=O)c4ccc(F)cc4F)c3F)c2c1 [P-2055, N-[3-(5-Cyano-1H-pyrrolo[2,3-b]pyridine-3-carbonyl)-2-fluoro-phenyl]-2,4-difluoro-benzenesulfonamide]
not listed: Fms
≤ 10 µM: all other assays above

Cc1cnc2[nH]cc(C(=O)c3cccc(NS(=O)(=O)c4ccc(C(F)(F)F)cc4)c3F)c2c1 [P-2059, N-[2-Fluoro-3-(5-methyl-1H-pyrrolo[2,3-b]pyridine-3-carbonyl)-phenyl]-4-trifluoromethyl-benzenesulfonamide]
not listed: Kit | Fms
≤ 10 µM: all other assays above

O=C(c1cc(NS(=O)(=O)c2ccc(F)cc2)ccc1F)c1c[nH]c2ncc(Cl)cc12 [P-2107, N-[3-(5-Chloro-1H-pyrrolo[2,3-b]pyridine-3-carbonyl)-4-fluoro-phenyl]-4-fluoro-benzenesulfonamide]
≤ 10 µM: Fms | Kdr | Kit

O=C(c1cccc(NS(=O)(=O)c2ccc(F)cc2)c1)c1c[nH]c2ncc(Cl)cc12 [P-2121, N-[3-(5-Chloro-1H-pyrrolo[2,3-b]pyridine-3-carbonyl)-phenyl]-4-fluoro-benzenesulfonamide]
≤ 10 µM: Fms | Kdr | Kit

O=C(c1cccc(NS(=O)(=O)c2cccc(C(F)(F)F)c2)c1)c1c[nH]c2ncc(Cl)cc12 [P-2122, N-[3-(5-Chloro-1H-pyrrolo[2,3-b]pyridine-3-carbonyl)-phenyl]-3-trifluoromethyl-benzenesulfonamide]
≤ 10 µM: Fms | Kdr | Kit

O=C(c1cccc(NS(=O)(=O)c2cccc(OC(F)(F)F)c2)c1)c1c[nH]c2ncc(Cl)cc12 [P-2124, N-[3-(5-Chloro-1H-pyrrolo[2,3-b]pyridine-3-carbonyl)-phenyl]-3-trifluoromethoxy-benzenesulfonamide]
≤ 10 µM: Fms | Kdr | Kit

O=C(c1cccc(NS(=O)(=O)c2cccc(Cl)c2)c1)c1c[nH]c2ncc(Cl)cc12 [P-2125, 3-Chloro-N-[3-(5-chloro-1H-pyrrolo[2,3-b]pyridine-3-carbonyl)-phenyl]-benzenesulfonamide]
≤ 10 µM: Fms | Kdr | Kit

CCCS(=O)(=O)Nc1ccc(F)c(C(=O)c2c[nH]c3ncc(-c4ccc(Cl)nc4)cc23)c1F [P-2154, Propane-1-sulfonic acid {3-[5-(6-chloro-pyridin-3-yl)-1H-pyrrolo[2,3-b]pyridine-3-carbonyl]-2,4-difluoro-phenyl}-amide]
not listed: Kit | Fms
≤ 10 µM: all other assays above

CCCS(=O)(=O)Nc1ccc(F)c(C(=O)c2c[nH]c3ncc(-c4cc(C)nn4C)cc23)c1F [P-2195, Propane-1-sulfonic acid {3-[5-(2,5-dimethyl-2H-pyrazol-3-yl)-1H-pyrrolo[2,3-b]pyridine-3-carbonyl]-2,4-difluoro-phenyl}-amide]
not listed: C-Raf | Fms
≤ 10 µM: all other assays above

CCCS(=O)(=O)Nc1ccc(F)c(C(=O)c2c[nH]c3ncc(/C=C/C(=O)OC)cc23)c1F [P-2225, (E)-3-{3-[2,6-Difluoro-3-(propane-1-sulfonylamino)-benzoyl]-1H-pyrrolo[2,3-b]pyridin-5-yl}-acrylic acid methyl ester]
not listed: Kit | Fms
≤ 10 µM: all other assays above

CCCS(=O)(=O)Nc1ccc(F)c(C(=O)c2c[nH]c3ncc(C#CCN(CC)CC)cc23)c1F [P-2241, Propane-1-sulfonic acid {3-[5-(3-diethylamino-prop-1-ynyl)-1H-pyrrolo[2,3-b]pyridine-3-carbonyl]-2,4-difluoro-phenyl}-amide]
≤ 10 µM: Fms | Kdr | Kit

COc1ccnc2[nH]cc(C(=O)c3c(F)ccc(NS(=O)(=O)C(C)C)c3F)c12 [P-2280, Propane-2-sulfonic acid [2,4-difluoro-3-(4-methoxy-1H-pyrrolo[2,3-b]pyridine-3-carbonyl)-phenyl]-amide]
not listed: Kit | Fms
≤ 10 µM: all other assays above

CCCC(C)S(=O)(=O)Nc1ccc(F)c(C(=O)c2c[nH]c3ncc(Cl)cc23)c1F (stereo not drawn) [P-2311, Pentane-2-sulfonic acid [3-(5-chloro-1H-pyrrolo[2,3-b]pyridine-3-carbonyl)-2,4-difluoro-phenyl]-amide]
not listed: B-Raf | Fms
≤ 10 µM: all other assays above

O=C(c1c(F)ccc(NS(=O)(=O)CCC(F)(F)F)c1F)c1c[nH]c2ncc(-c3ccc(Cl)cc3)cc12 [P-2325, 3,3,3-Trifluoro-propane-1-sulfonic acid {3-[5-(4-chloro-phenyl)-1H-pyrrolo[2,3-b]pyridine-3-carbonyl]-2,4-difluoro-phenyl}-amide]
≤ 10 µM: Kit | Src

O=C(c1c(F)ccc(NS(=O)(=O)C2CC2)c1F)c1c[nH]c2ncc(Br)cc12 [P-2348, Cyclopropanesulfonic acid [3-(5-bromo-1H-pyrrolo[2,3-b]pyridine-3-carbonyl)-2,4-difluoro-phenyl]-amide]
≤ 10 µM: B-Raf V600E | Fms | Kdr | Kit

CN(C)S(=O)(=O)Nc1cccc(C(=O)c2c[nH]c3ncc(-c4ccc(Cl)cc4)cc23)c1F [P-2423, N,N-dimethylamino-sulfonic acid {3-[5-(4-chloro-phenyl)-1H-pyrrolo[2,3-b]pyridine-3-carbonyl]-2-fluoro-phenyl}-amide]
≤ 10 µM: B-Raf V600E | Fms | Kdr

O=C(c1cccc(NS(=O)(=O)N2CCCC2)c1F)c1c[nH]c2ncc(-c3ccc(Cl)cc3)cc12 [P-2425, Pyrrolidine-1-sulfonic acid {3-[5-(4-chloro-phenyl)-1H-pyrrolo[2,3-b]pyridine-3-carbonyl]-2-fluoro-phenyl}-amide]
not listed: Kit | Src
≤ 10 µM: all other assays above

CCCCS(=O)(=O)Nc1ccc(F)c(C(=O)c2c[nH]c3ncc(Cl)cc23)c1 [P-2435, Butane-1-sulfonic acid [3-(5-chloro-1H-pyrrolo[2,3-b]pyridine-3-carbonyl)-4-fluoro-phenyl]-amide]
≤ 10 µM: B-Raf V600E | Fms | Kdr | Kit

O=C(c1cc(NS(=O)(=O)C2CC2)ccc1F)c1c[nH]c2ncc(Cl)cc12 [P-2436, Cyclopropanesulfonic acid [3-(5-chloro-1H-pyrrolo[2,3-b]pyridine-3-carbonyl)-4-fluoro-phenyl]-amide]
≤ 10 µM: B-Raf V600E | Fms | Kdr | Kit

CCCCS(=O)(=O)Nc1ccc(F)c(C(=O)c2c[nH]c3ncccc23)c1 [P-2438, Butane-1-sulfonic acid [4-fluoro-3-(1H-pyrrolo[2,3-b]pyridine-3-carbonyl)-phenyl]-amide]
≤ 10 µM: Fms | Kdr | Kit

O=C(c1cc(NS(=O)(=O)C2CC2)ccc1F)c1c[nH]c2ncccc12 [P-2439, Cyclopropanesulfonic acid [4-fluoro-3-(1H-pyrrolo[2,3-b]pyridine-3-carbonyl)-phenyl]-amide]
≤ 10 µM: Fms | Kdr

O=C(c1cccc(NS(=O)(=O)C2CC2)c1)c1c[nH]c2ncc(Cl)cc12 [P-2451, Cyclopropanesulfonic acid [3-(5-chloro-1H-pyrrolo[2,3-b]pyridine-3-carbonyl)-phenyl]-amide]
≤ 10 µM: Fms | Kdr | Kit
